Assay results published in DBAASP.
In brackets after ≈: the same amount, converted by molar mass.

Columns and labels:
Test in all cases: ≥ marks a high value that may be exact or a test limit, other limits are often not marked, values filed in µg/mL are converted to µM
[1] = test system: Serratia marcescens ATCC 4112
[2] = test system: Escherichia coli SBS 363
[3] = test system: Bacillus megaterium ATCC 10778
[4] = test system: Staphylococcus aureus ATCC 29213
[5] = test system: Candida tropicalis IOC 4560
[6] = test system: Enterobacter cloacae beta-12
[7] = test system: Candida albicans MDM8
[8] = test system: Bacillus subtilis ATCC 6633
[9] = test system: Pseudomonas aeruginosa ATCC 27853
[10] = test system: Micrococcus luteus A270
[11] = test system: Pseudomonas aeruginosa KCTC 1637
[12] = test system: Staphylococcus epidermidis KCTC 1917
[13] = test system: Bacillus subtilis KCTC 3068
[14] = test system: Proteus vulgaris KCTC 2433
[15] = test system: Enterococcus faecalis KCTC 2011
[16] = test system: Salmonella typhimurium KCTC 1926
[17] = test system: Escherichia coli KCTC 1682
[18] = test system: Staphylococcus aureus KCTC 1621
[19] = test system: Salmonella typhimurium KCTC 2370
[20] = test system: Escherichia coli KCTC 2223
[21] = test system: Staphylococcus aureus ATCC 15752
[22] = test system: Micrococcus luteus ATCC 10240
[23] = test system: Escherichia coli BL21AI
[24] = test system: Micrococcus luteus DSM 1790
[25] = test system: Salmonella enterica subsp. enterica serovar Heidelberg CICC 21487
[26] = test system: Salmonella enterica subsp. enterica serovar Potsdam CICC 21500
[27] = test system: Salmonella enterica subsp. enterica serovar Wandsworth CICC 21504
[28] = test system: Salmonella enterica subsp. enterica serovar Agona CICC 21586
[29] = test system: Salmonella enterica subsp. enterica serovar Braenderup ATCC H9812
[30] = test system: Escherichia coli O157:H7
[31] = test system: Salmonella enterica subsp. enterica serovar Meleagridis CICC 21511
[32] = test system: Salmonella enterica subsp. enterica serovar Aberdeen CICC 21492
[33] = test system: Salmonella enterica subsp. arizonae CICC 21506
[34] = test system: Salmonella typhimurium CMCC 50115
[35] = test system: Salmonella enterica subsp. enterica serovar Jerusalem CICC 21651
[36] = test system: Staphylococcus aureus ATCC 43300
[37] = test system: Salmonella enterica subsp. enterica serovar Montevideo CICC 21588
[38] = test system: Salmonella enterica subsp. enterica serovar Thompson CICC 21480
[39] = test system: Salmonella enterica subsp. enterica serovar Dakar CICC 21507
[40] = test system: Salmonella enterica subsp. enterica serovar Dublin CICC 21497
[41] = test system: Salmonella enterica subsp. enterica serovar Anatum CICC 21498
[42] = test system: Salmonella enterica subsp. enterica serovar Bovismorbificans CICC 21499
[43] = test system: Salmonella enterica subsp. enterica serovar Typhimurium CICC 21483
[44] = test system: Salmonella enterica subsp. enterica serovar Saintpaul CICC 21486
[45] = test system: Salmonella enterica subsp. enterica serovar Blockley CICC 21489
[46] = test system: Salmonella enterica subsp. enterica serovar Senftenberg CICC 21502
[47] = test system: Salmonella enterica subsp. enterica serovar Enteritidis CMCC 50041
[48] = test system: Staphylococcus epidermidis ATCC 12228
[49] = test system: Salmonella enterica subsp. enterica serovar Adelaide CICC 21505
[50] = test system: Salmonella enterica subsp. enterica serovar Bonn CICC 21677
[51] = test system: Enterococcus faecalis ATCC 29212
[52] = test system: Salmonella enterica subsp. enterica serovar Miami CICC 21509
[53] = test system: Salmonella enterica subsp. enterica serovar Kentucky CICC 21488
[54] = test system: Salmonella enterica subsp. enterica serovar Eastbourne CICC 21508
[55] = test system: Candida albicans ATCC 10231

CC(C)C[C@H](NC(=O)[C@H](C)NC(=O)[C@H](CCCN=C(N)N)NC(=O)[C@H](CC(C)C)NC(=O)[C@@H](N)Cc1ccccc1)C(=O)N[C@@H](Cc1c[nH]c2ccccc12)C(=O)N[C@@H](CC(N)=O)C(=O)N[C@H](C(=O)N[C@@H](C)C(=O)N[C@@H](CCCCN)C(=O)N[C@@H](CO)C(=O)N[C@H](C(=O)N[C@@H](Cc1ccccc1)C(N)=O)C(C)C)C(C)C [FLRALWNVAKSVF]
MIC [1]: 0.4 µM (≈ 0.62 µg/mL)
MIC [2]: 1.6 µM (≈ 2.48 µg/mL)
MIC [3]: 1.6 µM (≈ 2.48 µg/mL)
MIC [4]: 1.6 µM (≈ 2.48 µg/mL)
MIC [5]: 1.6 µM (≈ 2.48 µg/mL)
MIC [6]: 12.5 µM (≈ 19.4 µg/mL)
MIC [7]: 3.1 µM (≈ 4.8 µg/mL)
MIC [8]: 0.8 µM (≈ 1.24 µg/mL)
MIC [9]: 12.5 µM (≈ 19.4 µg/mL)
MIC [10]: 1.6 µM (≈ 2.48 µg/mL)

CC(C)C[C@H](NC(=O)[C@H](CC(C)C)NC(=O)[C@H](CCCCN)NC(=O)[C@H](CC(C)C)NC(=O)[C@H](CC(C)C)NC(=O)[C@H](CCCCN)NC(=O)[C@H](CCCCN)NC(=O)[C@H](CC(C)C)NC(=O)[C@H](CC(C)C)NC(=O)[C@H](CCCCN)NC(=O)[C@H](CCCCN)NC(=O)[C@H](Cc1c[nH]c2ccccc12)NC(=O)[C@@H](N)CCCCN)C(=O)N[C@@H](CCCCN)C(=O)N[C@@H](CCCCN)C(=O)O [KWKKLLKKLLKLLKK]
MIC [11]: ≥ 32 µM
MIC [12]: 22.6 µM (≈ 43.2 µg/mL)
MIC [13]: 11.3 µM (≈ 21.6 µg/mL)
MIC [14]: ≥ 32 µM
MIC [15]: 16 µM (≈ 30.5 µg/mL)
MIC [16]: ≥ 32 µM
MIC [17]: 22.6 µM (≈ 43.2 µg/mL)
MIC [18]: 8 µM (≈ 15.3 µg/mL)

CC(C)[C@H](NC(=O)[C@H](CCCCN)NC(=O)[C@@H](N)CCCN=C(N)N)C(=O)N[C@@H](CCCN=C(N)N)C(=O)NCC(=O)N1CCC[C@H]1C(=O)N1CCC[C@H]1C(=O)O [RKVRGPP]
MIC [19]: ≥ 32 µM
MIC [20]: ≥ 32 µM
MIC [21]: ≥ 32 µM
MIC [22]: ≥ 32 µM

CC[C@H](C)[C@H](NC(=O)[C@H](CCCN=C(N)N)NC(=O)[C@H](CCCN=C(N)N)NC(=O)[C@@H]1CCCN1C(=O)[C@@H]1CCCN1C(=O)[C@@H](NC(=O)[C@@H]1CCCN1C(=O)[C@H](CCCN=C(N)N)NC(=O)[C@@H]1CCCN1C(=O)[C@H](CC(C)C)NC(=O)[C@H](Cc1ccc(O)cc1)NC(=O)[C@@H]1CCCN1C(=O)[C@@H]1CCCN1C(=O)[C@H](CCCCN)NC(=O)[C@H](CC(=O)O)NC(=O)[C@@H](N)C(C)C)[C@@H](C)O)C(=O)N[C@@H](Cc1ccc(O)cc1)C(=O)N[C@@H](CC(N)=O)C(=O)O [VDKPPYLPRPTPPRRIYN]
MIC [23]: ≥ 57.4 µM
MIC [24]: 28.7 µM (≈ 62.5 µg/mL)

C[C@@H](O)[C@@H]1NC(=O)[C@@H](NC(=O)[C@H](CCCCN)NC(=O)[C@H](Cc2c[nH]c3ccccc23)NC(=O)[C@H](CCCCN)NC(=O)[C@@H](N)Cc2c[nH]c3ccccc23)CSSC[C@@H](C(=O)N[C@@H](CCCCN)C(=O)N[C@@H](Cc2c[nH]c3ccccc23)C(=O)N[C@@H](CCCCN)C(=O)N[C@@H](Cc2c[nH]c3ccccc23)C(N)=O)NC(=O)CNC(=O)[C@H](CO)NC(=O)[C@H](CCCCN)NC1=O [WKWKCTKSGCKWKW]
MIC [25]: 1.08 µM (≈ 2 µg/mL)
MIC [26]: 1.08 µM (≈ 2 µg/mL)
MIC [27]: 2.16 µM (≈ 3.99 µg/mL)
MIC [28]: 2.16 µM (≈ 3.99 µg/mL)
MIC [29]: 2.16 µM (≈ 3.99 µg/mL)
MIC [30]: 2.16 µM (≈ 3.99 µg/mL)
MIC [31]: 2.16 µM (≈ 3.99 µg/mL)
MIC [32]: 2.16 µM (≈ 3.99 µg/mL)
MIC [33]: 2.16 µM (≈ 3.99 µg/mL)
MIC [34]: 2.16 µM (≈ 3.99 µg/mL)
MIC [35]: 4.31 µM (≈ 7.99 µg/mL)
MIC [36]: 4.31 µM (≈ 7.99 µg/mL)
MIC [37]: 2.16 µM (≈ 3.99 µg/mL)
MIC [38]: 2.16 µM (≈ 3.99 µg/mL)
MIC [39]: 2.16 µM (≈ 3.99 µg/mL)
MIC [40]: 2.16 µM (≈ 3.99 µg/mL)
MIC [41]: 2.16 µM (≈ 3.99 µg/mL)
MIC [42]: 2.16 µM (≈ 3.99 µg/mL)
MIC [43]: 2.16 µM (≈ 3.99 µg/mL)
MIC [4]: 2.16 µM (≈ 3.99 µg/mL)
MIC [44]: 1.08 µM (≈ 2 µg/mL)
MIC [45]: 4.31 µM (≈ 7.99 µg/mL)
MIC [46]: 2.16 µM (≈ 3.99 µg/mL)
MIC [47]: 4.31 µM (≈ 7.99 µg/mL)
MIC [48]: 2.16 µM (≈ 3.99 µg/mL)
MIC [49]: 2.16 µM (≈ 3.99 µg/mL)
MIC [50]: 1.08 µM (≈ 2 µg/mL)
MIC [51]: 1.08 µM (≈ 2 µg/mL)
MIC [52]: 4.31 µM (≈ 7.99 µg/mL)
MIC [53]: 2.16 µM (≈ 3.99 µg/mL)
MIC [54]: 2.16 µM (≈ 3.99 µg/mL)
MIC [55]: 1.08 µM (≈ 2 µg/mL)
